Several values for one entry are separate records, joined by “and”; a condition that tells them apart may be missing. Identical values can stand only once. Like-named read-outs stand apart in the source and are kept apart here. Square brackets hold non-standard residues; d marks the D form. Ends that are not written are not given here. Peptide text beside a SMILES is read from it. pGlu = O=C1CC[C@@H](C(=O)O)N1
Molecular target: T1, ACE from pig kidney (Sus scrofa, UniProt F1RRW5)
T1 construct: 1 mU ACE from pig kidney (EC 3.4.15.1 (Sigma)); purchased Sigma; host or cells: pig kidney (tissue-derived enzyme)
T1 sequence (F1RRW5 34-1309): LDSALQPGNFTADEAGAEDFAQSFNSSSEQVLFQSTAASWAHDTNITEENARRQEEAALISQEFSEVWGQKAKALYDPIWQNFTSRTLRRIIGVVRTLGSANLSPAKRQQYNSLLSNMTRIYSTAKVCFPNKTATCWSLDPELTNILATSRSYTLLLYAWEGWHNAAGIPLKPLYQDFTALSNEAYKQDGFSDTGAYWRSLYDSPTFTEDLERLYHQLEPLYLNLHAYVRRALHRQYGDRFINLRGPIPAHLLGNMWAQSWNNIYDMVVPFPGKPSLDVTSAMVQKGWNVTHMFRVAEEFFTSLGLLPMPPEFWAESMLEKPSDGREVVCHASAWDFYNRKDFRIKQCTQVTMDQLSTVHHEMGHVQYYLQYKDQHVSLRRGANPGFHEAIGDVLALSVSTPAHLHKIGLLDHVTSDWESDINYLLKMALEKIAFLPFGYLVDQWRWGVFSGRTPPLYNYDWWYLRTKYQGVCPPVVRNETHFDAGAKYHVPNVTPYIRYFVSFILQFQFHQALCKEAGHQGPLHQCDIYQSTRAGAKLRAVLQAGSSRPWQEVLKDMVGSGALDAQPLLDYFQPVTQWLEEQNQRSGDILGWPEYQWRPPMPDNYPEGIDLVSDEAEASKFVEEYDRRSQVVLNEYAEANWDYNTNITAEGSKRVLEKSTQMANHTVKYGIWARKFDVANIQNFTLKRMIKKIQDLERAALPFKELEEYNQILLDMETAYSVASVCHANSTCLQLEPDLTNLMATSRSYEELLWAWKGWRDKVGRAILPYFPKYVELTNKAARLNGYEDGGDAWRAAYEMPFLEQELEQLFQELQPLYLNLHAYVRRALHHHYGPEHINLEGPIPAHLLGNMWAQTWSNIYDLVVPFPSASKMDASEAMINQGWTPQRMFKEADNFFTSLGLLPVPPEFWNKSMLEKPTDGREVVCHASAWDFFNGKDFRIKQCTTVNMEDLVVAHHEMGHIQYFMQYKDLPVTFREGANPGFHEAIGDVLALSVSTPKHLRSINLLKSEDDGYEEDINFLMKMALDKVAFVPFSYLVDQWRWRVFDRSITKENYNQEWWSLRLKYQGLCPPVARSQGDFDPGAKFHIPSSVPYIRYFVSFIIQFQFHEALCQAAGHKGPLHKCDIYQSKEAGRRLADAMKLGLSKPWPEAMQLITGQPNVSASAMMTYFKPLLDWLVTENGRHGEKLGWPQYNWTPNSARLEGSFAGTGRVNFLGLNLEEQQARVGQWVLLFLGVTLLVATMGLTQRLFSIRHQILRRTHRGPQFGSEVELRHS
Assay: biochemical
Assay type: biochemical
Source text: These peptides were investigated for their inhibitory effect using an in vitro-ACE-inhibitor-assay with an angiotensin-converting-enzyme derived from pig kidney. Hippuryl-histidyl-leucin was used as a substrate. […] A concrete experimental description is given below.
The principle of the ACE-inhibition-assay was established by Chejung, H. S., Cushman, D. W.: “Inhibition of homogenous angiotensin converting enzyme of rabbit lung by synthetic venom peptides of Bothrops jararaca.” in Biochimica et Biophysica Acta 293, 451-563 (1973).
The assay was performed in 96 well HTRF-plates (Packard). The concentrations used for each well were:
1 mU ACE from pig kidney (EC 3.4.15.1 (Sigma)) in 30 μl of assay buffer (25 mM HEPES; 0,3 M NaCl, pH 8,2) and 20 μl inhibitor dissolved in assay buffer (0,35-200 μM). The reaction was started by adding 50 μl of 2 mM hippuryl-histidyl-leucin (Sigma) in assay buffer. The reaction was performed at room temperature (22° C.) for 30 minutes and terminated by adding 50 μl of 2 M NaOH. Afterwards 50 μl of 0,5% ortho-phtalaldehyd (Sigma) in methanol were added, 5 minutes later followed by 50 μl of 2,5 M HCl-solution to stabilize the developed fluorescence product.
The results were used to calculate the % inhibition. The IC50-values were determined graphically from a curve showing the dose-reaction ratio.
In order to minimize errors due to time-dependent differences, all pipetting steps were performed in a precise time schedule.

[1] = ACE from pig kidney, determined graphically, read-out: IC50-value (ACE inhibition)
[2] = inhibitor 0.39 μM, replicates A-D
[3] = inhibitor 0.39 μM, replicates A-D, 0.39 µM
[4] = inhibitor 0.78125 μM, replicates A-D
[5] = inhibitor 0.78125 μM, replicates A-D, 0.78125 µM
[6] = inhibitor 1.5625 μM, replicates A-D
[7] = inhibitor 1.5625 μM, replicates A-D, 1.5625 µM
[8] = inhibitor 3.125 μM, replicates A-D
[9] = inhibitor 3.125 μM, replicates A-D, 3.125 µM
[10] = inhibitor 6.25 μM, replicates A-D
[11] = inhibitor 6.25 μM, replicates A-D, 6.25 µM
[12] = inhibitor 12.5 μM, replicates A-D
[13] = inhibitor 12.5 μM, replicates A-D, 12.5 µM
[14] = inhibitor 25 μM, replicates A-D
[15] = inhibitor 25 μM, replicates A-D, 25 µM
[16] = inhibitor 50 μM, replicates A-D
[17] = inhibitor 50 μM, replicates A-D, 50 µM
[18] = inhibitor 100 μM, replicates A-D
[19] = inhibitor 100 μM, replicates A-D, 100 µM
[20] = inhibitor 200 μM, replicates A-D
[21] = inhibitor 200 μM, replicates A-D, 200 µM

Compound | IC50 [1] | fluorescence reading (ACE Inhibitor Assay) [2] | % inhibition (ACE Inhibitor Assay) [3] | fluorescence reading (ACE Inhibitor Assay) [4] | % inhibition (ACE Inhibitor Assay) [5] | fluorescence reading (ACE Inhibitor Assay) [6] | % inhibition (ACE Inhibitor Assay) [7] | fluorescence reading (ACE Inhibitor Assay) [8] | % inhibition (ACE Inhibitor Assay) [9] | fluorescence reading (ACE Inhibitor Assay) [10] | inhibition at 6.25 µM [10] | % inhibition (ACE Inhibitor Assay) [11] | fluorescence reading (ACE Inhibitor Assay) [12] | inhibition at 12.5 µM [12] | % inhibition (ACE Inhibitor Assay) [13] | fluorescence reading (ACE Inhibitor Assay) [14] | inhibition at 25 µM [14] | % inhibition (ACE Inhibitor Assay) [15] | fluorescence reading (ACE Inhibitor Assay) [16] | inhibition at 50 µM [16] | further results
GAALSPLPEVPP [Peptide S544] | 29 µM | 841511 and 894833 and 882762 and 936430 | 9.4% and 3.63% and 4.93% and −0.88% | 853374 and 881105 and 872351 and 929364 | 8.12% and 5.11% and 6.06% and −0.11% | 864708 and 811879 and 787983 and 930998 | 6.89% and 12.61% and 15.2% and −0.29% | 822128 and 840019 and 799408 and 883161 | 11.5% and 9.56% and 13.96% and 4.89% | 670407 and 719205 and 725919 and 735049 | 27.9% | 22.66% and 21.93% and 20.94% | 668628 and 658367 and 643614 and 684354 | 28.1% | 29.25% and 30.85% and 26.43% | 494831 and 495043 and 522915 and 521311 | 47% | 46.95% and 43.93% and 44.1% | 263679 and 261020 and 262784 and 286592 | 72% | % inhibition (ACE Inhibitor Assay) [17]: 72.3% and 72.12% and 69.54%; fluorescence reading (ACE Inhibitor Assay) [18]: 154967 and 152193 and 156501 and 158918; inhibition at 100 µM [18]: 83.8%; % inhibition (ACE Inhibitor Assay) [19]: 84.1% and 83.63% and 83.37%; fluorescence reading (ACE Inhibitor Assay) [20]: 92239 and 93028 and 95574 and 94363; inhibition at 200 µM [20]: 90.6%; % inhibition (ACE Inhibitor Assay) [21]: 90.51% and 90.23% and 90.34%
CC[C@H](C)[C@H](NC(=O)[C@H](CC(C)C)NC(=O)[C@@H]1CCCN1C(=O)[C@H](CCSC)NC(=O)[C@@H]1CCC(=O)N1)C(=O)N1CCC[C@H]1C(=O)N[C@@H](CCCNC(=N)N)C(=O)N[C@@H](C)C(=O)N[C@@H](CO)C(=O)N[C@@H](CC(=O)O)C(=O)N[C@@H](CCC(=O)O)C(=O)N[C@@H](CC(N)=O)C(=O)N[C@H](C(=O)N1CCC[C@H]1C(=O)N1CCC[C@H]1C(=O)O)C(C)C [Peptide S682] ([pGlu]MPLIPRASDENVPP-OH) |  |  |  |  |  |  |  |  |  |  |  |  |  |  |  |  |  |  |  |  | IC50: 150 µM
LSPLPEVPP [Peptide S546] | 3.5 µM | 803315 and 773719 and 787391 and 826280 | 14.38% and 12.86% and 8.53% | 719861 and 687713 and 702450 and 763649 | 23.96% and 22.32% and 15.5% | 591636 and 572728 and 566984 and 657580 | 36.77% and 37.41% and 27.32% | 483121 and 472396 and 452574 and 495814 | 47.95% and 50.15% and 45.32% | 308510 and 312423 and 322970 and 336576 | 66.2% | 65.77% and 64.59% and 63.07% | 225714 and 208268 and 221839 and 226385 | 75.4% | 77.32% and 75.86% and 75.35% | 116421 and 119382 and 118514 and 124101 | 87.6% | 87.27% and 87.36% and 86.74% | 69502 and 65379 and 67861 and 73176 | 92.8% | inhibition at 0.39 µM [2]: 11.1%; inhibition at 0.78125 µM [4]: 20.4%; inhibition at 1.5625 µM [6]: 34.7%; inhibition at 3.125 µM [8]: 46.8%; % inhibition (ACE Inhibitor Assay) [17]: 93.28% and 93.01% and 92.41%; fluorescence reading (ACE Inhibitor Assay) [18]: 37664 and 36789 and 37490 and 39445; inhibition at 100 µM [18]: 96.4%; % inhibition (ACE Inhibitor Assay) [19]: 96.47% and 96.39% and 96.17%; fluorescence reading (ACE Inhibitor Assay) [20]: 22822 and 23110 and 24700 and 22511; inhibition at 200 µM [20]: 98%; % inhibition (ACE Inhibitor Assay) [21]: 97.99% and 97.82% and 98.06%
AALSPLPEVPP [Peptide S494] | 9 µM | 704319 and 727603 and 762908 and 659968 | 2.56% and −0.67% and −5.59% and 8.74% | 643151 and 655606 and 667363 and 633619 | 9.35% and 7.71% and 12.41% | 602329 and 645065 and 664903 and 606137 | 16.77% and 10.82% and 8.05% and 16.23% | 563277 and 547546 and 579178 and 556345 | 24.4% and 20% and 23.17% | 420434 and 435365 and 427540 and 433344 | 42.1% | 40.02% and 41.11% and 40.3% | 312590 and 306320 and 319249 and 308116 | 57.1% | 57.99% and 56.19% and 57.74% | 193365 and 203903 and 204201 and 188693 | 73.7% | 72.26% and 72.21% and 74.38% | 119135 and 120732 and 124777 and 108988 | 84.1% | inhibition at 0.78125 µM [4]: 11.1%; inhibition at 3.125 µM [8]: 22.2%; % inhibition (ACE Inhibitor Assay) [17]: 83.84% and 83.28% and 85.48%; fluorescence reading (ACE Inhibitor Assay) [18]: 59914 and 62551 and 64312 and 57543; inhibition at 100 µM [18]: 92.3%; % inhibition (ACE Inhibitor Assay) [19]: 91.94% and 91.7% and 92.64%; fluorescence reading (ACE Inhibitor Assay) [20]: 34342 and 34053 and 34364 and 34738; inhibition at 200 µM [20]: 95.9%; % inhibition (ACE Inhibitor Assay) [21]: 95.91% and 95.82%
